According to PMC10005185, “Structure-guided engineering of a receptor-agonist pair for inducible activation of the ABA adaptive response to drought” (Science Advances, 2023):

Biological target: T1, ABI1 with AtPYR1 (Arabidopsis thaliana, UniProt O49686)
T1 construct: His; made in house
Assay: PP2C inhibition assay, ABI1 with AtPYR1
Assay type: biochemical
Details: 1 µM phosphatase:2 µM receptor; read-out: IC50 of ABI1 with AtPYR1
Description: His-tagged receptors and phosphatases were purified using nickel–nitrilotriacetic acid (Ni-NTA) affinity chromatography. Protein integrity was analyzed by SDS–polyacrylamide gel electrophoresis, followed by InstantBlue staining. Phosphatase activity was measured using p-Nitrophenyl Phosphate (pNPP) (25 mM) as substrate, 10 mM MnCl2,1 μM PP2C, and 2 μM of the indicated receptors. Proteins were incubated with the ligands for 10 min at room temperature. pNPP was then added to start the reactions, and the absorbance at 405 nm was monitored for 20 min in a ViktorX5 plate reader. Assays were repeated twice. For dose-response experiments, IC50 values were obtained with GraphPad Prism 9 using a nonlinear regression curve fit. Each ligand concentration was tested in triplicate. Phosphatase activity of ABI1 was measured using RRA(phosphoT)VA peptide as a substrate, as described ([27]). […]
(D) Dose response analysis of iSB09 or ABA-dependent inhibition of ABI1 (blue and black lines, respectively) in presence of either AtPYL1 or AtPYR1. Values (average of duplicates) show PP2C activity after incubation with the indicated concentration of ligand and receptor at 1:2 ratio (1 µM phosphatase:2 µM receptor). […]
whereas with AtPYR1 was 200 nM and 213 nM, for ABA and iSB09, respectively. Ligands were assayed

T1 sequence (O49686 whole entry): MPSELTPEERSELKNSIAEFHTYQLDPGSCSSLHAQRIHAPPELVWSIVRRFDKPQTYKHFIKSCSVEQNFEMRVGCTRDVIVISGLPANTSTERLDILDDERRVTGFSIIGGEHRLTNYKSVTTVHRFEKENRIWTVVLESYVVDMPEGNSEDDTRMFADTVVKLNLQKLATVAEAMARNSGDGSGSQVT
T1 sequence (P49597 whole entry partner): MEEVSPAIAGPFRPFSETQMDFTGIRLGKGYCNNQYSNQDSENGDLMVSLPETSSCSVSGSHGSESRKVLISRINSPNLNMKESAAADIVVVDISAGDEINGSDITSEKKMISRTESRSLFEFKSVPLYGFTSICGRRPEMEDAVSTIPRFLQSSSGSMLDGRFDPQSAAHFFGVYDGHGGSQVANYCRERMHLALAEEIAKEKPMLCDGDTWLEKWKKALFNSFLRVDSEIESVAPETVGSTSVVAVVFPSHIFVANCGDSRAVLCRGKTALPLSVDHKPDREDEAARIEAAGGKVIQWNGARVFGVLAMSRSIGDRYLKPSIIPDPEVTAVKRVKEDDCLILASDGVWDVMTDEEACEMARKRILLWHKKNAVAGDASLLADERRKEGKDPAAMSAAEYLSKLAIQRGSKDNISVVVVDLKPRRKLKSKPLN

SMILES: CCn1c(=O)cc(C)c2cc(CNS(=O)(=O)c3ccccc3)ccc21 [iSB09]
- IC50: 213 nM
